How the values were obtained:
[1] = tested on: DENV2 NGC; assay: Primary screening: compounds added to DENV2 infected LLC/MK2 cells, plaque titration of culture supernatants; assay type: cell-based, Dengue virus
Description: In this study, we selected 8 flavonoid derivatives (Fig. 1) and tested their effect on DENV2 NGC in a LLC/MK2 cell-based system. Briefly, the compounds at final concentrations of 10 μM and 25 μM in DMSO were added to DENV2 infected LLC/MK2 cells and the effect on viral particle production was measured by plaque titration of the culture supernatants. […] We also tested cytotoxicity of FV13, FV14, and CH1 to verify the viral inhibition in LLC/MK2 cells (Table 2). The viabilities of FV13 treated cells were 81.00 ± 2.69% and 59.40 ± 2.42%, at 10, and 25 µM respectively, whereas the values for FV14 treated cells were 60.24 ± 3.31% and 60.86 ± 3.57%. We also examined Vero, THP-1, HepG2, and HEK-293 cell viabilities in the presence of selected compounds (Table 2).
LLC/MK2 cells were seeded at 5 × 10^4 cells into each well of 24-well plate and incubated overnight at 37 °C under 5% CO2. Cells were infected with DENV2 at the multiplicity of infection (M.O.I.) of 0.1, unless indicated otherwise, for 1 h with gentle rocking every 15 min. Cells were washed with phosphate buffer saline (PBS) and incubated with 1 ml of MEM medium supplemented with 1% FBS as previously described. The compounds were prepared in dimethylsulfoxide (DMSO) at the indicated concentrations before addition to viral infected cells. Supernatants were collected after 5 day incubation and analyzed by plaque titration. In primary screening, DMSO-treated cells served as the untreated control. Compounds that inhibited virus production by ≥90% were selected for further characterization.

[2] = Cytotoxicity study (CellTiter 96 AQueous One) in Vero cells; assay type: cell-based; details: African green monkey, Vero cells, 48 h, read-out: Cells viability (%, means ± SEM) Vero
Description: (§1) The cytotoxicity of active compounds was tested on LLC-MK2, Vero, THP-1, HEK-293, HepG2 and C6/36 cell lines. Each cell line was seeded at 1 × 10^4 cells per well in 96-well plates and incubated overnight. The compounds were added at the indicated concentrations and the cells were incubated for 48 h, unless indicated otherwise. Cell viability was analyzed using CellTiter 96® AQueous One Solution Cell Proliferation Assay kit (Promega, Wisconsin-Madison, USA) according to manufacturer’s protocol. The plate was read at the A 450 in a VICTORTM × 3 microplate reader (PerkinElmer, Massachusetts, USA). Percent cell viability in compound-treated wells was calculated using reference DMSO-treated cells as a 100% cell viability control. The CC50 values of LLC/MK2 cells were calculated using nonlinear regression analysis. Results were reported as means and standard error of the means (SEM) of CC50 values of three independent experiments in which each drug concentration was tested in triplicate.

[3] = tested on: Vero cells; assay: as above; assay type: cell-based; details: 10 and 25 µM; in words
Description: as §1

[4] = Cytotoxicity study (CellTiter 96 AQueous One) in HEK-293 cells; assay type: cell-based; details: human, HEK-293 cells, read-out: Cells viability (%, means ± SEM) HEK-293
Description: as §1

[5] = tested on: DENV1 (16007); assay: Antiviral efficacy (EC50) in virus infected LLC/MK2 cells, plaque assay; assay type: cell-based, Dengue virus
Description: Compound at various concentrations were added to virus infected LLC/MK2 cells and viral titers were accessed by plaque titration of supernatants as previously described.
LLC/MK2 cells were seeded at 5 × 10^4 cells into each well of 24-well plate and incubated overnight at 37 °C under 5% CO2. Cells were infected with DENV2 at the multiplicity of infection (M.O.I.) of 0.1, unless indicated otherwise, for 1 h with gentle rocking every 15 min. Cells were washed with phosphate buffer saline (PBS) and incubated with 1 ml of MEM medium supplemented with 1% FBS as previously described. The compounds were prepared in dimethylsulfoxide (DMSO) at the indicated concentrations before addition to viral infected cells. Supernatants were collected after 5 day incubation and analyzed by plaque titration[9].
Compounds were prepared in DMSO at 8–12 different concentrations and added to virus infected cells as previously described. Supernatants were collected and the EC50 values were calculated from nonlinear regression analysis.

[6] = tested on: BHK-21/DENV2 replicon cells; assay: Replicon inhibition assay, RT-qPCR of replicon RNA; assay type: cell-based; details: Dengue virus, DENV2, BHK-21, 72 h, read-out: inhibition of DENV2 replicon replication
Description: (§2) Next, we studied FV13 inhibition in a DENV2 replicon replication system to investigate whether translation and replication could be implicated as drug targets. BHK-21/DENV2 replicon cells[28] were treated with 5 and 10 µM FV13 and incubated for 72 h before measuring replication efficiency by quantifying replicon RNA. Ribavirin, a known dengue virus replication inhibitor[29], was used as a positive control.
After supernatant collection, the remaining cells in experimental plates were extracted for viral RNAs using TRIzol reagent (Invitrogen, California, USA) according to the manufacturer’s protocol. The samples were loaded into the Direct-zol™ RNA MiniPrep (Zymo research, California, USA) and quantified by Nanodrop spectrophotometry (Eppendorf, New York, USA). The RT-qPCR was performed with a Step-OnePlus Real-Time PCR System (Applied Biosystems, California, USA.) with 1 × Power SYBRGreen PCR Master Mix, 400 nM each of capsid primers[40] or 250 nM of NS1 primers[41] and 0.1 µg of total RNA. The reactions were then cycled at 48 °C 30 min and 95 °C 10 min, followed by 45 cycles of 95 °C for 20 s (denaturation), 55 °C for 30 s (annealing), 72 °C for 30 s (extension). Each sample was analyzed in triplicated and results were confirmed by two independent experiments.
BHK-21 cells expressing a DENV2 replicon (BHK-21/DENV2) were maintained in minimal essential medium (MEM) supplemented with 10% fetal bovine serum (FBS), and 0.3 mg/ml G418 (Bio Basic Canada, Ontario, Canada). The protocol was adapted from Boonyasuppayakorn et al., 2014 [28]. Briefly, cells (5 × 10^4/well) were seeded into 24-well plates and were incubated for 1 day at 37 °C in a humidified CO2 chamber followed by addition of the compounds in 1% DMSO at final concentrations of 5 µM and 10 µM. DMSO (1%) alone was used as the no-inhibitor control (0% inhibition) and the reference compound was ribavirin (TargetMol, Massachusetts, USA) at a final concentration of 5 µM or 10 µM. Cells were incubated at 37 °C for 72 h and lysed to quantify DENV2 replicons by RT-qPCR. Data were reported as percent inhibition compared with ribavirin, as a reference compound and DMSO, 0% inhibition. Results were confirmed by three independent experiments.

[7] = Viability of DENV2/BHK-21 replicon cells; assay type: cell-based; details: hamster, 5 and 10 µM, read-out: viable replicon cells
Description: as §2
Figure 6 Replicon inhibition study. (A) DENV2/BHK-21 replicon cells were treated with FV13 or ribavirin for 72 h. Percent inhibition was calculated from RT-qPCR of extracted RNA. Error bars represented standard error of means (SEM) from two independent experiments with triplicate samples. Asterisks indicated statistical significance in paired t-test as follows; *p-value < 0.05, **p-value < 0.01, ***p-value < 0.001 compared to 1% DMSO negative control. (B) Percent DENV2/BHK-21 replicon cell viability at 72 h under 5 and 10 µM FV13 treatment. Error bars represented standard error of means (SEM) from three independent experiments, in which each experiment was performed in triplicate.

[8] = Dengue virus, DENV2, LLC-MK2, read-out: DENV2 inhibition (%, means ± SEM)

O=c1cc(-c2ccccc2)oc2c(Br)c(O)c(Br)c(O)c12 [FV13, 6,8-dibromo-5,7-dihydroxyflavone]
inhibition of virus production ([1]; 10 μM and 25 μM, summary of Table 1): > 99% | inhibition at 10 µM [1, 8]: 99.45 ± 0.48% | inhibition at 25 µM [1, 8]: 99.65 ± 0.41% | viability at 48 h, 10 µM ([2]; 10 μM): 53.1 ± 4.9% | viability at 48 h, 25 µM ([2]; 25 μM): 42.6 ± 0.65% | sensitivity of Vero cells to the compound [3]: very sensitive | viability at 48 h, 10 µM ([4]; 10 μM): 98.1 ± 0.72% | viability at 48 h, 25 µM ([4]; 25 μM): 89.4 ± 5.6% | S.I. Selectivity index (CC50/EC50) ([5]; DENV1 (16007), CC50 in LLC/MK2): 19.42 | EC50 ([5]; Dengue virus, DENV1, LLC-MK2): 2.3 ± 1.04 µM | inhibition at 5 µM [6]: 83.4 ± 2.04% | inhibition at 10 µM [6]: 82.7 ± 4.01% | viability at 72 h [7]: > 99%
